From patent publication US20180344715A1, “WNT/BETA-CATENIN SIGNAL TRANSDUCTION INHIBITORS AND THEIR USE IN TREATMENT OR PREVENTION OF DISEASES AND CONDITIONS LINKED WITH SAID TRANSDUCTION” (BERGEN TEKNOLOGIOVERFORING AS, priority 2015, published 2018)

What was measured:
free GFP = biological target: T1, free GFP (Aequorea victoria, UniProt P42212); assay: MST ligand-binding assay, free GFP negative control; conditions: SW480 cell lysates, negative controls, two parallels
T1 construct: expressed in transfected cells; host or cells: SW480
Procedure: Ten million SW480 cells overexpressing GFP-tagged SHPRH or free GFP were lysed in 1 mL radioimmunoprecipitation assay (RIPA) buffer. Cell lysates were diluted in buffer A [50 mM Hepes buffer (pH 7.5), 5 mM DTT, 10 mM CaCl2), 50 mM NaCl, and 0.05% Tween-20] to a final concentration at which the fluorescent signals of the GFP proteins were similar and well above the detection limit of the Monolith NT.115 instrument (NanoTemper Technologies GmbH). Ten microliters of each receptor were mixed with 10 μL of the ligand at various concentrations from 100 μM to 3.05 nM. Specifically, the ligand (4 mM in 100% DMSO) was diluted 1:20 to a final concentration of 200 μM in buffer A (giving 5% DMSO). Ten microliters of the 200 μM ligand solution was further serially diluted 1:1 in 10 μL of buffer A supplemented with 5% DMSO to make a 16-sample dilution series down to 6.1 nM. Ten microliters of the cell lysate were added to 10 μL of each ligand solution. […] The fluorescence signal during the thermophoresis was monitored for 30 s, and the change in fluorescence was analyzed as thermophoresis with T-jump. The Kd was calculated by fitting a standard binding curve to the average of four independent dilution series.

HCT116 cells = assay: Soft agar colony-formation assay, HCT116; format: cell-based; conditions: 10 days
Procedure: The soft agar colony-formation assay was performed using the CellTransformation Assays kit (catalog no. CBA-130; Cell Biolabs, Inc.) according to the recommended protocol. […] Medium containing drugs was replaced every 3 d. For the clonogenic assay, positively transfected cells (wild-type and mutant GFP-SHPRH and control GFP) were enriched by FACS and were seeded in six-well plates at a density of 3,000 cells per well. Medium was changed every 3 d. On the last day colony growth was quantified by crystal violet staining and measurement of OD at 590 nm.

SHPRH = biological target: T2, SHPRH (Homo sapiens, UniProt Q149N8); assay: Cellular thermal shift assay (CETSA), SHPRH; format: binding; conditions: SW480, 10 μM
T2 construct: endogenous in cells; host or cells: SW480
Procedure: CETSA in intact cells was performed according to the protocol previously described (Martinez Molina, D. et al., 2013, Science 341, 84-87). Briefly, SW480 cells were seeded equally in 2 T75 flasks and allowed to reach 80% confluence one day after. […] After trypsinization and PBS wash, cells were resuspended in 450 μl PBS containing freshly added protease inhibitors and equally divided between 7 tubes. Cells in each tube were heated at indicated temperatures for 3 minutes and kept at room temperature for 3 minutes. Heated cells were lysed by 3 cycles of freezing in liquid nitrogen (1 minute) and thawing in room temperature water (1 minute). The cell lysates were centrifuged at 20,000 g for 20 minutes at 4° C. The soluble fractions were isolated for Western blotting analysis.

[1] = test system: Apc (VilCre^ER Apc^fl/fl) intestinal organoids; assay: Apc mutant intestinal organoid culture; format: cell-based, mouse; conditions: 7 days
From the text: Mouse intestinal Apc (VilCre^ER Apc^fl/fl) organoids were obtained from Owen J. Sansom's laboratory at the Beatson Institute for Cancer Research, Glasgow, UK. The culture protocol has been described previously (14). Briefly, Apc mutant organoids were suspended in Growth Factor Reduced Matrigel (catalog no. 356231; Corning) and cultured in Advanced DMEM/F12 (catalog no. 12634-028; Invitrogen) containing 1% B-27 supplement (50×), minus vitamin A (catalog no. 12587-010; Invitrogen) and 0.1% BSA. Organoids were seeded in 24-well plates at a density of 70-100 organoids/50 μL Matrigel in each well. […] One week later organoids were imaged using the Cytation 5 Cell Imaging Multi-Mode Reader (BioTek Instruments, Inc.).

Apc^min/+ mice = assay: Apc min/+ mice study (intestinal adenomas, H&E and IHC); format: in vivo; conditions: 50 mg/kg daily for 5 weeks
From the text: C57BL/6-Apc^min/+ mice were obtained from the Model Animal Research Center of Nanjing University (Nanjing, China). Mice were housed and fed a standard rodent diet at the Animal Facility of the Second Military Medical University (Shanghai, China) in compliance with the institutional guidelines of the Animal Care and Use Committee. […] The mice were weighed weekly and monitored daily for any signs of illness. The mice were sacrificed at the last day of the treatment. The small intestines were dissected, washed in PBS, fixed in 4% PBS-buffered formaldehyde and embedded in paraffin using standard procedures.
H&E and IHC were performed according to the protocol previously described (Qu, Y. et al, supra). Primary antibodies used for IHC were β-catenin (ab16051, 1:1000, Abcam), Ki67 (ab16667, clone SP6, 1:100, Abcam) and BrdU (ab6326, clone BU1/75, 1:80, Abcam). Investigators were blinded when counting the intestinal adenomas and assessing the homeostasis of mice and fish intestine. Histologic images were captured using the Qcapture Suite software with a Qimaging Exi Blue camera attached to a Leica DMRBE microscope.

T2 sequence (Q149N8 whole entry): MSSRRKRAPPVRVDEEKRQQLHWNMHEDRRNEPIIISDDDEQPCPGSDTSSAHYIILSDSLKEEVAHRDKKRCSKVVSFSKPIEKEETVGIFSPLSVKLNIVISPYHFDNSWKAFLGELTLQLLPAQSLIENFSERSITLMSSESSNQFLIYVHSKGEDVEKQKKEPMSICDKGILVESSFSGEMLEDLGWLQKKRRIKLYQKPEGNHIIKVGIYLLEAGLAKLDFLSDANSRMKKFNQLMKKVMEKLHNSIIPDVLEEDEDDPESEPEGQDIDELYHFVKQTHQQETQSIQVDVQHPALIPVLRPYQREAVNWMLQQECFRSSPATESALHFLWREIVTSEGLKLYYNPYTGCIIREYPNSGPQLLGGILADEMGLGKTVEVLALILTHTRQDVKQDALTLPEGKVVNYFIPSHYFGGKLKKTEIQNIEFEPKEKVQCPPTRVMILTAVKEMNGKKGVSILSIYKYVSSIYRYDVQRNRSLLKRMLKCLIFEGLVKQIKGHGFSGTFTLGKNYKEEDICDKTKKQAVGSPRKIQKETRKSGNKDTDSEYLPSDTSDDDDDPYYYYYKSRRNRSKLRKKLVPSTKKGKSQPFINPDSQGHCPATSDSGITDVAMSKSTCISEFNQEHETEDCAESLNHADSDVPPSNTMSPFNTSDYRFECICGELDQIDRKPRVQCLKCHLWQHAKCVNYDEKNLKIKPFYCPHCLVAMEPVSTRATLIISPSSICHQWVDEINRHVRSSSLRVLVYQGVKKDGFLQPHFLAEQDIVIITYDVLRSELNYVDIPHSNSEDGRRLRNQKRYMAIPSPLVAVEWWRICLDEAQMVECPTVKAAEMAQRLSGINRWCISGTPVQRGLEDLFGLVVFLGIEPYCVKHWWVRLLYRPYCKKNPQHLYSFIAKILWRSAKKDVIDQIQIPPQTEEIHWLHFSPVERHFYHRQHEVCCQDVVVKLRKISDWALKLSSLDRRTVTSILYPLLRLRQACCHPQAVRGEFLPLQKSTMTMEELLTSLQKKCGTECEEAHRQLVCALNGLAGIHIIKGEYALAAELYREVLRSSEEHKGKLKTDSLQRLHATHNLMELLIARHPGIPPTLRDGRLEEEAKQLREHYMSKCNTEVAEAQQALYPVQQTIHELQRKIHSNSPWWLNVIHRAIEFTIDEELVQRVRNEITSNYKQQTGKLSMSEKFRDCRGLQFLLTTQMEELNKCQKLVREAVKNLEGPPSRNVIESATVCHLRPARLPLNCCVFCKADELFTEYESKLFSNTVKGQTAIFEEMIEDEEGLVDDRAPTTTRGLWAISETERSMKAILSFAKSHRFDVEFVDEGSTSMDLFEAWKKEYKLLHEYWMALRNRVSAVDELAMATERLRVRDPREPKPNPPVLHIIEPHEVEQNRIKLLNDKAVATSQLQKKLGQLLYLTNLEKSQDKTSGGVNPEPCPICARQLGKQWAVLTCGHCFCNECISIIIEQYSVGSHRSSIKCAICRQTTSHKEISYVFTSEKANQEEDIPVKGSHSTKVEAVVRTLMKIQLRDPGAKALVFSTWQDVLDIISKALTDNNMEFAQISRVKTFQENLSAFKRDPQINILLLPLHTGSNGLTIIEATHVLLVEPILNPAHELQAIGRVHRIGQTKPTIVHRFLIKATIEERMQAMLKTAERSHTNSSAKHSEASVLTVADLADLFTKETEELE

CNC(=O)c1ccccc1Sc1ccc2c(/C=C/c3ccccn3)n[nH]c2c1 [axitinib, N-Methyl-2-[[3-[(E)-2-pyridin-2-ylethenyl]-1H-indazol-6-yl]sulfanyl]benzamide]
binding of the ligand to free GFP (free GFP): did not show any binding | colony growth (HCT116 cells): strongly and dose-dependently inhibited | direct binding in intact living cells (SHPRH): confirmed | growth of Apc-deleted murine organoids [1]: strongly inhibited | normal-looking small intestine: mucosa organization, crypt density, distribution of Ki67 positive cells (Apc^min/+ mice): no obvious change | nuclear β-catenin in adenomas (IHC) (Apc^min/+ mice): reduced nuclear β-catenin | staining of the proliferation marker Ki67 in adenomas (Apc^min/+ mice): Obviously weaker staining | numbers of multi-villus adenomas and microadenomas (Apc^min/+ mice; oral gavage): significantly decreased
